The source made the active and inactive calls.
Columns and labels:
Mus musculus [1] = assay: Anticonvulsant activity in mouse assessed as protection against maximal electroshock-induced seizure at 400 mg/kg; format: functional, organism-based
Mus musculus [2] = assay: Anticonvulsant activity in mouse assessed as protection against subcutaneous pentylenetetrazol-induced seizure at 100 mg/kg; format: functional, organism-based
Mus musculus [3] = assay: Anticonvulsant activity in mouse assessed as protection against maximal electroshock-induced seizure at 100 mg/kg; format: functional, organism-based
Mus musculus [4] = assay: Anticonvulsant activity in mouse assessed as protection against maximal electroshock-induced seizure at 25 mg/kg; format: functional, organism-based
Rattus norvegicus [5] = assay: Anticonvulsant activity in rat amygdala kindling model assessed as decrease in rearing and bilateral forelimb clonus seizure 100 mg/kg, po; format: functional, organism-based
Rattus norvegicus [6] = assay: Anticonvulsant activity in rat amygdala kindling model assessed as change in after-discharge threshold at 100 mg/kg, po; format: functional
Rattus norvegicus [7] = assay: Anticonvulsant activity in rat amygdala kindling model assessed as change in after-discharge duration at 100 mg/kg, po; format: functional
Rattus norvegicus [8] = assay: Anticonvulsant activity in rat amygdala kindling model assessed as change in after-discharge threshold at 30 mg/kg, po; format: functional
Mus musculus [9] = assay: Anticonvulsant activity in mouse assessed as protection against maximal electroshock-induced seizure at 50 mg/kg; format: functional, organism-based
Rattus norvegicus [10] = assay: Anticonvulsant activity in rat amygdala kindling model assessed as change in after-discharge duration at 30 mg/kg, po; format: functional
Mus musculus [11] = assay: Anticonvulsant activity in mouse assessed as protection against subcutaneous pentylenetetrazol-induced seizure at 400 mg/kg; format: functional, organism-based
Mus musculus [12] = organism: Mus musculus; assay: Anticonvulsant activity in mouse assessed as protection against maximal electroshock-induced seizure; format: functional
Mus musculus [13] = assay: Anticonvulsant activity in ip-dosed mouse assessed as protection against subcutaneous pentylenetetrazol-induced seizure; format: functional; conditions: sc
[14] = Permeability of compound at pH 7.4 by PAMPA assay; format: physicochemical; conditions: read-out: permeability
[15] = Metabolic stability in rat liver microsome assessed as recovery of parent compound after 30 mins in presence NADPH; format: ADME; conditions: liver microsomes, read-out: Drug recovery
[16] = Permeability of compound at pH 5.0 by PAMPA assay; format: physicochemical; conditions: read-out: permeability

| Papp [14] [×10⁻⁶ cm/s] | remaining at 0.5 h [15] [%] | Papp [16] [×10⁻⁶ cm/s] | Compound | Activity (Mus musculus [1]) | also measured |
| --- | --- | --- | --- | --- | --- |
|  |  |  | CCC1=C(C(=O)NC2CC2)N(C)S(=O)(=O)c2ccccc21 | Active |  |
|  |  |  | CC(C)NC(=O)C1=Cc2ccccc2S(=O)(=O)N1C | Active | Activity (Mus musculus [2]): inactive; Activity (Mus musculus [3]): inactive |
|  |  |  | CCNC(=O)C1=C(Cl)c2ccccc2S(=O)(=O)N1C |  | Activity (Mus musculus [2]): Active; Activity (Mus musculus [4]): inactive; Activity (Rattus norvegicus [5]): Active; Activity (Rattus norvegicus [6]): 40.5%; Activity (Rattus norvegicus [7]): -18.2%; Activity (Rattus norvegicus [8]): 10%; Activity (Mus musculus [9]): Active; Activity (Mus musculus [3]): Active; Activity (Rattus norvegicus [10]): -20% |
|  |  |  | CN1C(C(=O)NC2CC2)=C(c2ccccc2)c2ccccc2S1(=O)=O |  | Activity (Mus musculus [11]): inactive |
|  |  |  | NC(=O)N1c2ccccc2C=Cc2ccccc21 [CARBAMAZEPINE] |  | ED50 (Mus musculus [12]): 13 mg/kg; ED50 (Mus musculus [13]): > 100 mg/kg |
| 5.9 | > 90 | 5.9 | CN1C(C(=O)NC2CC2)=Cc2ccccc2S1(=O)=O | Active | Activity (Mus musculus [3]): Active; Activity (Mus musculus [11]): Active |
|  |  |  | O=C1NC(=O)C(c2ccccc2)(c2ccccc2)N1 [PHENYTOIN] |  | ED50 (Mus musculus [12]): 8 mg/kg; ED50 (Mus musculus [13]): > 300 mg/kg |
| 12 | > 90 | 12 | CN1C(C(=O)NC2CC2)=C(Cl)c2ccccc2S1(=O)=O | Active |  |
|  |  |  | NS(=O)(=O)Cc1noc2ccccc12 [ZONISAMIDE] |  | ED50 (Mus musculus [12]): 20 mg/kg; ED50 (Mus musculus [13]): > 500 mg/kg; Activity (Rattus norvegicus [6]): 45.9%; Activity (Rattus norvegicus [7]): -37.6%; Activity (Rattus norvegicus [8]): 5.1%; Activity (Rattus norvegicus [10]): 7% |
|  |  |  | O=C(NC1CC1)C1=C(Cl)c2ccccc2S(=O)(=O)N1Cc1ccccc1 | inactive |  |
| 5.9 | > 90 | 5.9 | CNC(=O)C1=Cc2ccccc2S(=O)(=O)N1C | Active |  |
|  |  |  | CCN1C(C(=O)NC2CC2)=C(Cl)c2ccccc2S1(=O)=O | Active |  |
|  |  |  | CC(=O)NCCNC(=O)C1=Cc2ccccc2S(=O)(=O)N1C | inactive |  |
| 12 | > 90 | 12 | CC1=C(C(=O)NC2CC2)N(C)S(=O)(=O)c2ccccc21 | Active | Activity (Mus musculus [3]): inactive |
| 12 | > 90 | 12 | CN1C(C(=O)NC2CC2)=C(C2CC2)c2ccccc2S1(=O)=O | Active |  |
| 5.9 | > 90 | 5.9 | CCNC(=O)C1=Cc2ccccc2S(=O)(=O)N1C | Active | Activity (Mus musculus [11]): Active |
| 5.9 | > 90 | 5.9 | CCCNC(=O)C1=Cc2ccccc2S(=O)(=O)N1C | Active | Activity (Mus musculus [9]): inactive; Activity (Mus musculus [11]): Active |
|  |  |  | CN(C)C(=O)C1=Cc2ccccc2S(=O)(=O)N1C | Active |  |
|  |  |  | CN1C(C(=O)NCC(F)F)=Cc2ccccc2S1(=O)=O | Active |  |
